Source: paper PMC12116161, “An Elastase Inhibitor ShSPI from Centipede Attenuates Bleomycin-Induced Pulmonary Fibrosis” (Toxins, 2025)
“Also recorded” adds a separate entry of the source. Where a SMILES comes first, the peptide text is derived from it. Bridges are numbered along the chain shown (N, C = ends).

Key:
[1] = tested on: BLM-induced idiopathic pulmonary fibrosis (IPF) mouse model; assay: Histopathologic analysis of the lungs (H&E and Masson staining) of IPF mice; format: in vivo, ICR mice
Procedure: Animal Model Preparation: The peptide powder was dissolved in pre-cooled saline and filtered to remove bacteria, then a spray needle was attached to a micro-syringe to aspirate the peptide solution. A total of 56 ICR mice were anesthetized by intramuscular injection of avertin. After anesthesia, the mice were fixed supine, the tongue was gently pulled, the vocal folds were exposed with a laryngoscope, the trachea was gently inserted, and the nebulized solution was rapidly pushed and injected. Each mouse was administered 100 μL of a 0.4 mg/mL bleomycin solution via tracheal spray, with the treatment performed once. Seven days after modeling, the mice were randomly grouped for ShSPI treatment based on weight loss scores. An additional 8 mice received the vehicle (normal saline) and were designated as the sham group.
A total of 48 suitable mice were randomly divided into five groups: the model control group (MC), the positive control group (PC), and the ShSPI low-dose groups (1 mg/kg), medium-dose groups (2 mg/kg), and high-dose groups (4 mg/kg).
Drug Administration: Starting on day 7 post-modeling, ShSPI peptide treatment groups were anesthetized with intramuscular avertin and received tracheal spray administration of the peptide. The low-dose group was treated with 1 mg/kg ShSPI peptide, the medium-dose group with 2 mg/kg, and the high-dose group with 4 mg/kg. The positive control group, without anesthesia, received 200 mg/kg pirfenidone (IPFD) via oral gavage. All groups were treated once daily for seven consecutive days.
Sample Collection: Twenty-four hours after the final treatment, all ICR mice were euthanized via intramuscular injection of suforane. […]
The samples from experiment 4.1 were then processed using standard protocols for paraffin embedding, and 5 μm thick paraffin sections were prepared. […] Multiple fields were randomly selected, and the severity of alveolar inflammation in each group was quantified according to criteria such as the area of tissue affected by inflammation. […]

[2] = Pharmacokinetic study of ShSPI (plasma, LC-MS/MS); format: in vivo, mice; parameters: CI/F: unit not given here
Procedure: Each plasma sample was analyzed by LC-MS/MS, and the raw data were processed by DAS pharmacokinetic v2.1.1 software to obtain pharmacokinetic parameters (Table 3) and blood concentration–time curves (Figure 5).
Grouping and Sampling: SIPF grade Sprague Dawley (SD) healthy rats (male, procured from Hunan Slaughter King Laboratory Animal Co.) were randomly divided into three groups, with three rats in each group. All groups received a single administration of the ShSPI and were fasted for 12 h prior to dosing. The groups included two inhalation groups (1 mg/kg and 2 mg/kg) and an intravenous tail vein injection group (1 mg/kg). Blood samples were collected from the subclavian vein at 5 min, 15 min, 30 min, 1 h, 2 h, 4 h, 8 h, and 24 h post-dosing. A 0.2 mL blood sample was transferred into pre-labeled EDTA-2K anticoagulant tubes and gently inverted to ensure thorough mixing of the anticoagulant with the blood. Samples were immediately placed on ice. Plasma was separated within 1 h by centrifugation at 6800 rpm for 5 min at 4 °C. The supernatant was collected and stored at −20 °C until analysis.
Sample Preparation Before Analysis: Sample preparation was conducted under yellow light in an ice-water bath. For each analysis, 30 μL of standard or experimental sample was mixed with 200 μL of working solution, while blank samples were prepared with an equivalent volume of methanol. The mixture was vortexed thoroughly and centrifuged at 5500 rpm for 10 min. A 150 μL aliquot of the supernatant was mixed with 150 μL of ultrapure water, and the final mixture was subjected to analysis.
Chromatographic and Mass Spectrometry Conditions: Chromatographic separation was performed using an AQ C18 column (2.1 × 50 mm, 5.0 μm). The injection volume was 10 μL. The mobile phase consisted of 0.1% formic acid in water (A) and methanol (B), with the following gradient program: 10% B at 0–0.01 min, 98% B at 0.01–1.8 min, 98% B at 1.8–2.5 min, and 10% B at 2.5–3.0 min. The flow rate was set at 0.6 mL/min. Mass spectrometry analysis was performed using an electrospray ionization (ESI) source in multiple reaction monitoring (MRM) mode.

[3] = ShSPI tracheal spray once daily for 7 days
[4] = male, Sprague Dawley, inhaled or intranasal, 1 mg/kg ShSPI, single inhalation, plasma, LC-MS/MS, DAS software, mean ± s, n = 3, method SD rats
[5] = male, Sprague Dawley, inhaled or intranasal, 2 mg/kg ShSPI, single inhalation, plasma, LC-MS/MS, DAS software, mean ± s, n = 3, method SD rats

Structure (SMILES): CC[C@H](C)[C@@H]1NC(=O)[C@H](C)NC(=O)[C@@H]2CCCN2C(=O)[C@@H]2CSSC[C@H](NC(=O)[C@H](CO)NC(=O)[C@H](CC(N)=O)NC(=O)[C@H](CO)NC(=O)[C@H](Cc3ccc(O)cc3)NC(=O)[C@H](CCSC)NC(=O)[C@H](CCCNC(=N)N)NC(=O)CNC(=O)[C@H](Cc3ccccc3)NC(=O)[C@H](CCC(=O)O)NC(=O)[C@H](CC(=O)O)NC(=O)[C@H](Cc3ccccc3)NC(=O)[C@H](C(C)C)NC(=O)[C@@H]3CCCN3C(=O)[C@H](CCC(N)=O)NC(=O)[C@H](Cc3ccc(O)cc3)NC1=O)C(=O)N[C@@H](CCC(=O)O)C(=O)N[C@@H](CCSC)C(=O)N[C@@H](CCC(N)=O)C(=O)N[C@@H](CCCNC(=N)N)C(=O)N[C@@H](C)C(=O)N[C@@H](CCCNC(=N)N)C(=O)N[C@H](C(=O)N[C@@H](CC(C)C)C(=O)N[C@@H](CCCNC(=N)N)C(=O)NCC(=O)O)CSSC[C@H](N)C(=O)N1CCC[C@H]1C(=O)N[C@@H](CCC(N)=O)C(=O)N[C@@H](C(C)C)C(=O)N2 [ShSPI] (H-CPQVCPAIYQPVFDEFGRMYSNSCEMQRARCLRG-OH; disulfide 1-31, 5-24; N-terminus and C-terminus assumed)
- effect on the model's damage (fibrotic lesions) ([1]; ShSPI 1 mg/kg tracheal spray once daily for 7 days, compared with 2 and 4 mg/kg): less effective
- collagen deposition in the lungs (Masson staining) [1, 3]: substantial inhibition
- lung inflammation (H&E staining) [1, 3]: substantial reduction
- CI/F ([2]; 2 mg/kg ShSPI, single inhalation, plasma, LC-MS/MS, DAS software, mean ± s, n = 3, table says mice, method SD rats): 29.00 ± 11.90
- detectability in vivo (plasma) at 8 h post-administration ([2]; inhalation, doses of 1 mg/kg and 2 mg/kg, 8 h post-administration, LC-MS/MS): detected; also recorded: detectable
- detectability in vivo (plasma) at 24 h post-administration ([2]; inhalation, doses of 1 mg/kg and 2 mg/kg, 24 h post-administration, LC-MS/MS): no longer detectable
- AUC(0-t) [2, 4]: 580 ± 294 ng·h/mL
- Cmax [2, 4]: 188 ± 64.4 ng/mL
- MRT [2, 4]: 2.86 ± 0.725 h
- Tmax ([2]; male, Sprague Dawley, inhaled or intranasal, 1 mg/kg ShSPI, single inhalation, plasma, LC-MS/MS, DAS software, n = 3, method SD rats): 1 h
- AUC(0-inf) [2, 5]: 1260 ± 422 ng·h/mL
- AUC(0-t) [2, 5]: 1170 ± 415 ng·h/mL
- Cmax [2, 5]: 347 ± 151 ng/mL
- MRT [2, 5]: 3.1 ± 0.898 h
- half-life [2, 5]: 2.14 ± 0.663 h
- Tmax ([2]; male, Sprague Dawley, inhaled or intranasal, 2 mg/kg ShSPI, single inhalation, plasma, LC-MS/MS, DAS software, n = 3, method SD rats): 1 h
- overall metabolism in mice ([2]; overall assessment in words): moderate
